Results taken from PubChem BioAssay (NCI).
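A five-concentration, 48-hour dose response in 96-well plates underlies each endpoint, interpolated linearly between surrounding concentrations. At the TGI there is no net growth.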

Key:
Test in all cases: NCI tumour cell line growth inhibition, 48 h
SR leukemia = system: SR leukemia
EKVX NSCLC = system: EKVX NSCLC
T-47D breast = system: T-47D breast
MDA-N = system: MDA-N
NCI-H23 lung = system: NCI-H23 lung
U251 CNS = system: U251 CNS
HCT-15 colon = system: HCT-15 colon
COLO 205 colon = system: COLO 205 colon
BT-549 breast = system: BT-549 breast
OVCAR-5 ovarian = system: OVCAR-5 ovarian
SF-295 CNS = system: SF-295 CNS
RPMI-8226 leukemia = system: RPMI-8226 leukemia
SNB-19 CNS = system: SNB-19 CNS
HOP-62 NSCLC = system: HOP-62 NSCLC
786-0 renal = system: 786-0 renal
MCF7 breast = system: MCF7 breast
TK-10 renal = system: TK-10 renal
CAKI-1 renal = system: CAKI-1 renal
ACHN renal = system: ACHN renal
SK-MEL-2 melanoma = system: SK-MEL-2 melanoma
HCT-116 colon = system: HCT-116 colon
KM12 colon = system: KM12 colon
NCI-H522 lung = system: NCI-H522 lung
SF-539 CNS = system: SF-539 CNS
PC-3 prostate = system: PC-3 prostate
SNB-75 CNS = system: SNB-75 CNS
MOLT-4 leukemia = system: MOLT-4 leukemia
SN12C renal = system: SN12C renal
NCI-H226 lung = system: NCI-H226 lung
K-562 leukemia = system: K-562 leukemia
NCI/ADR-RES ovarian = system: NCI/ADR-RES ovarian
IGROV1 ovarian = system: IGROV1 ovarian
A549 NSCLC = system: A549 NSCLC
HS 578T breast = system: HS 578T breast
UACC-62 melanoma = system: UACC-62 melanoma
MDA-MB-435 = system: MDA-MB-435
HT29 colon = system: HT29 colon
OVCAR-4 ovarian = system: OVCAR-4 ovarian
SW-620 colon = system: SW-620 colon
OVCAR-8 ovarian = system: OVCAR-8 ovarian
UACC-257 melanoma = system: UACC-257 melanoma
OVCAR-3 ovarian = system: OVCAR-3 ovarian
SK-MEL-5 melanoma = system: SK-MEL-5 melanoma
MDA-MB-231 breast = system: MDA-MB-231 breast
UO-31 renal = system: UO-31 renal
NCI-H460 lung = system: NCI-H460 lung
A498 renal = system: A498 renal
SK-OV-3 ovarian = system: SK-OV-3 ovarian
M14 melanoma = system: M14 melanoma
RXF 393 renal = system: RXF 393 renal
LOX IMVI melanoma = system: LOX IMVI melanoma
SF-268 CNS = system: SF-268 CNS
HCC-2998 colon = system: HCC-2998 colon
DU-145 prostate = system: DU-145 prostate
MALME-3M melanoma = system: MALME-3M melanoma
CCRF-CEM leukemia = system: CCRF-CEM leukemia
SK-MEL-28 melanoma = system: SK-MEL-28 melanoma
HOP-92 NSCLC = system: HOP-92 NSCLC

`CC(=O)NC1C(OC(C)C(=O)NC(C)C(=O)NC(CCC(=O)NCCCCCNc2ccc([N+](=O)[O-])c3[nH]c4ccccc4c(=O)c23)C(N)=O)C(O)C(CO)OC1(C)OCc1ccccc1` (configuration not stated) was tested, and the TGI (SR leukemia) was over 100 µM, the TGI (EKVX NSCLC) was over 100 µM and the TGI (T-47D breast) was over 100 µM. For the same compound, the TGI (MDA-N) was over 100 µM, the TGI (NCI-H23 lung) was over 100 µM and the TGI (U251 CNS) was over 100 µM. The TGI (HCT-15 colon) was over 100 µM, the TGI (COLO 205 colon) was over 100 µM and the TGI (BT-549 breast) was over 100 µM. For the same compound, the TGI (OVCAR-5 ovarian) was over 100 µM, the TGI (SF-295 CNS) was over 100 µM and the TGI (RPMI-8226 leukemia) was 70.1 µM. For the same compound, the TGI (SNB-19 CNS) was over 100 µM, the TGI (HOP-62 NSCLC) was over 100 µM and the TGI (786-0 renal) was over 100 µM. It also gave a TGI (MCF7 breast) of over 100 µM, a TGI (TK-10 renal) of 82.1 µM and a TGI (CAKI-1 renal) of over 100 µM. For the same compound, the TGI (ACHN renal) was over 100 µM, the TGI (SK-MEL-2 melanoma) was over 100 µM and the TGI (HCT-116 colon) was over 100 µM. For the same compound, the TGI (KM12 colon) was over 100 µM, the TGI (NCI-H522 lung) was over 100 µM and the TGI (SF-539 CNS) was over 100 µM. It also gave a TGI (PC-3 prostate) of over 100 µM, a TGI (SNB-75 CNS) of over 100 µM and a TGI (MOLT-4 leukemia) of over 100 µM. The TGI (SN12C renal) was over 100 µM, the TGI (NCI-H226 lung) was over 100 µM and the TGI (K-562 leukemia) was over 100 µM. It also gave a TGI (NCI/ADR-RES ovarian) of over 100 µM, a TGI (IGROV1 ovarian) of over 100 µM and a TGI (A549 NSCLC) of over 100 µM. It also gave a TGI (HS 578T breast) of over 100 µM, a TGI (UACC-62 melanoma) of over 100 µM and a TGI (MDA-MB-435) of over 100 µM. It also gave a TGI (HT29 colon) of over 100 µM, a TGI (OVCAR-4 ovarian) of over 100 µM and a TGI (SW-620 colon) of over 100 µM. For the same compound, the TGI (OVCAR-8 ovarian) was over 100 µM, the TGI (UACC-257 melanoma) was over 100 µM and the TGI (OVCAR-3 ovarian) was over 100 µM. The TGI (SK-MEL-5 melanoma) was over 100 µM, the TGI (MDA-MB-231 breast) was over 100 µM and the TGI (UO-31 renal) was over 100 µM. The TGI (NCI-H460 lung) was over 100 µM, the TGI (A498 renal) was over 100 µM and the TGI (SK-OV-3 ovarian) was over 100 µM. It also gave a TGI (M14 melanoma) of over 100 µM, a TGI (RXF 393 renal) of over 100 µM and a TGI (LOX IMVI melanoma) of over 100 µM. It also gave a TGI (SF-268 CNS) of over 100 µM, a TGI (HCC-2998 colon) of over 100 µM and a TGI (DU-145 prostate) of over 100 µM. The TGI (MALME-3M melanoma) was over 100 µM and the TGI (CCRF-CEM leukemia) was over 100 µM.
`CO/C=C/C=C(\C#N)C(=O)OC` showed a TGI (SR leukemia) of over 100 µM, a TGI (EKVX NSCLC) of over 100 µM and a TGI (T-47D breast) of over 100 µM. It also gave a TGI (MDA-N) of over 100 µM, a TGI (NCI-H23 lung) of over 100 µM and a TGI (U251 CNS) of over 100 µM. It also gave a TGI (HCT-15 colon) of over 100 µM, a TGI (COLO 205 colon) of over 100 µM and a TGI (BT-549 breast) of over 100 µM. For the same compound, the TGI (OVCAR-5 ovarian) was over 100 µM, the TGI (SF-295 CNS) was over 100 µM and the TGI (RPMI-8226 leukemia) was over 100 µM. It also gave a TGI (SNB-19 CNS) of over 100 µM, a TGI (HOP-62 NSCLC) of over 100 µM and a TGI (786-0 renal) of over 100 µM. The TGI (MCF7 breast) was over 100 µM, the TGI (TK-10 renal) was over 100 µM and the TGI (CAKI-1 renal) was over 100 µM. For the same compound, the TGI (ACHN renal) was over 100 µM, the TGI (SK-MEL-2 melanoma) was over 100 µM and the TGI (HCT-116 colon) was over 100 µM. The TGI (KM12 colon) was over 100 µM, the TGI (NCI-H522 lung) was over 100 µM and the TGI (SF-539 CNS) was over 100 µM. For the same compound, the TGI (PC-3 prostate) was over 100 µM, the TGI (SNB-75 CNS) was over 100 µM and the TGI (MOLT-4 leukemia) was over 100 µM. The TGI (SN12C renal) was over 100 µM, the TGI (NCI-H226 lung) was over 100 µM and the TGI (K-562 leukemia) was over 100 µM. For the same compound, the TGI (NCI/ADR-RES ovarian) was over 100 µM, the TGI (IGROV1 ovarian) was over 100 µM and the TGI (A549 NSCLC) was over 100 µM. The TGI (SK-MEL-28 melanoma) was over 100 µM, the TGI (HS 578T breast) was over 100 µM and the TGI (UACC-62 melanoma) was over 100 µM. It also gave a TGI (MDA-MB-435) of over 100 µM, a TGI (HT29 colon) of over 100 µM and a TGI (OVCAR-4 ovarian) of over 100 µM. The TGI (SW-620 colon) was over 100 µM, the TGI (OVCAR-8 ovarian) was over 100 µM and the TGI (UACC-257 melanoma) was over 100 µM. The TGI (OVCAR-3 ovarian) was over 100 µM, the TGI (SK-MEL-5 melanoma) was over 100 µM and the TGI (MDA-MB-231 breast) was over 100 µM. For the same compound, the TGI (UO-31 renal) was over 100 µM, the TGI (NCI-H460 lung) was over 100 µM and the TGI (A498 renal) was over 100 µM. For the same compound, the TGI (SK-OV-3 ovarian) was over 100 µM, the TGI (LOX IMVI melanoma) was over 100 µM and the TGI (SF-268 CNS) was over 100 µM. It also gave a TGI (HCC-2998 colon) of over 100 µM, a TGI (DU-145 prostate) of over 100 µM and a TGI (MALME-3M melanoma) of over 100 µM. It also gave a TGI (HOP-92 NSCLC) of over 100 µM and a TGI (CCRF-CEM leukemia) of over 100 µM.
